Literature values in publication PMC7898808 (Diabetes, Obesity & Metabolism, 2020).
Where two headings read alike, the source gives them in different places.

Tests used:
[1] = test system: fructose-stimulated DNL; settings: single dose of 20 mg, healthy population
[2] = test system: steady-state DNL; settings: repeat dosing in NASH subjects
[3] = test system: NAFLD patients; settings: 20 mg for 12 weeks
[4] = test system: hepatic DNL

COc1ccccc1[C@H](Cn1c(=O)n(C(C)(C)C(=O)O)c(=O)c2c(C)c(-c3ncco3)sc21)OC1CCOCC1 [GS-0976]
reduction of fructose-stimulated DNL [1]: 70% | decrease of steady-state DNL [2]: 22% | patients achieving relative MRI-PDFF reduction of ≥30% [3]: 43%

Cc1nnc(-c2cc(C(=O)N3CCC(c4ccc(C#N)cc4)CC3)c(C)cc2C2CCC2)[nH]1 [TVB-2640]
DNL inhibition ([4]; 50 mg daily dosing for 10 days): 23% | DNL inhibition ([4]; 100 mg daily dosing for 10 days): 65% | DNL inhibition ([4]; 150 mg daily dosing for 10 days): 77%
